Assay results reported in publication PMC4688937, “Heterologous expression of the isopimaric acid pathway in Nicotiana benthamiana and the effect of N-terminal modifications of the involved cytochrome P450 enzyme” (Journal of Biological Engineering, 2015).

Tests used:
CYP720B4 = molecular target: T1, CYP720B4 (Picea sitchensis, UniProt E5FA70); assay: co-expression with diTPS-ISO in N. benthamiana leaves, GC-MS and LC-MS; settings: in planta, endogenous redox partner
T1 construct: ER; 55 kDa

ΔTm-CYP720B4 = molecular target: T2, ΔTm-CYP720B4 (Picea sitchensis, UniProt E5FA70); assay: co-expression with diTPS-ISO, DXS and GGPPs in N. benthamiana leaves, GC-FID and LC-MS; settings: in planta, endogenous redox partner
T2 construct: N-terminal membrane domain (first 37 amino acids) removed, new start Met from primer, FLAG tag, expressed in Nicotiana benthamiana leaves; 51 kDa

diTPS-ISO = molecular target: T3, diTPS-ISO (Picea abies, UniProt Q675L5); assay: transient expression in N. benthamiana leaves, product by GC-MS; settings: endogenous GGPP in leaves, in planta; cyclisation to isopimaradiene
T3 construct: gene TPS-ISO; C-terminal FLAG tag, pEAQ-HT, transiently expressed in Nicotiana benthamiana leaves; own plastid targeting; 92 kDa
T3 sequence (Q675L5 69-867): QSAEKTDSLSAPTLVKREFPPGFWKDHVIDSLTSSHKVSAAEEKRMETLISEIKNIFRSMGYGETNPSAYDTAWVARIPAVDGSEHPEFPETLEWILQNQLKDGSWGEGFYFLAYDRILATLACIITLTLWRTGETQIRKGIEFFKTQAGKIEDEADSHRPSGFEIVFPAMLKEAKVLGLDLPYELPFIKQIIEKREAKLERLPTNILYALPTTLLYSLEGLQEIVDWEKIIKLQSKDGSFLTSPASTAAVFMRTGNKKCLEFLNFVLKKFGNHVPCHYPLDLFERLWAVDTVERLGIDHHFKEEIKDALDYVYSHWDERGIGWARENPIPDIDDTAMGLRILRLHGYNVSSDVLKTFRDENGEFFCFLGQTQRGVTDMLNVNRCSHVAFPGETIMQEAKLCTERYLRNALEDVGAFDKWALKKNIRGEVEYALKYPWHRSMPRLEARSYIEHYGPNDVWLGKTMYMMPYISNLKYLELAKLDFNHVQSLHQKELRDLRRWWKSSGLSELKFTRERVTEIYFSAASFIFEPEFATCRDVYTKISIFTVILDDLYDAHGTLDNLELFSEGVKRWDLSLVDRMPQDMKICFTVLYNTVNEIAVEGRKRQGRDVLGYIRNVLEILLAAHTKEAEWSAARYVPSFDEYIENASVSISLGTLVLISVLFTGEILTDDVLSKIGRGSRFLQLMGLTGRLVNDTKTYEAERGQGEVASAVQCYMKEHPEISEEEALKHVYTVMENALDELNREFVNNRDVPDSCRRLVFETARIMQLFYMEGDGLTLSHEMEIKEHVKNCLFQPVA

Tp-Barnes-CYP720B4 = molecular target: T4, Tp-Barnes-CYP720B4 (Picea sitchensis, UniProt E5FA70, DEL3-9/V13A, form not given); assay: co-expression with diTPS-ISO, DXS and GGPPs in N. benthamiana leaves, GC-FID and LC-MS; settings: in planta, chloroplast-targeted enzyme
T4 construct: Barnes-modified N-terminus preceded by transit peptide (N-terminal 52 residues of Arabidopsis thaliana ferredoxin FedA, GenBank AY128936), partly processed; FLAG tag; chloroplast-targeted in Nicotiana benthamiana leaves; 60 kDa precursor

Barnes-CYP720B4 = molecular target: T5, Barnes-CYP720B4 (Picea sitchensis, UniProt E5FA70, DEL3-9/V13A, form not given); assay: as above; settings: in planta, endogenous redox partner
T5 construct: Barnes-modified N-terminus (text: residues 3-9 deleted, V13A); 54 kDa
T5 sequence (E5FA70 entry or part of it DEL3-9/V13A, form open): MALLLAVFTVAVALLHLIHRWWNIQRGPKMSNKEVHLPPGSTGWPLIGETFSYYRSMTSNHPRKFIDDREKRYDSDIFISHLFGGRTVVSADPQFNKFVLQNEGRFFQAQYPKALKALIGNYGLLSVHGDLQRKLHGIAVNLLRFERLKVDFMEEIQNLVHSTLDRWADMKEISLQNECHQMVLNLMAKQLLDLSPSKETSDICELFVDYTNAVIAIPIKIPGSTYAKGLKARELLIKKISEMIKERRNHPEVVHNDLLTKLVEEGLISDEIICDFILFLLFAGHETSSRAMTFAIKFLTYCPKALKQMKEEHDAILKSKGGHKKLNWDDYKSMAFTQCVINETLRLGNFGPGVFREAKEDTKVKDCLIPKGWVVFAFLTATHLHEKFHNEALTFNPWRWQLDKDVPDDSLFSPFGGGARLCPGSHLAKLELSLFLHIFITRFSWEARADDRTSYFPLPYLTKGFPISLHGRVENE

T1 sequence (E5FA70 entry or part of it): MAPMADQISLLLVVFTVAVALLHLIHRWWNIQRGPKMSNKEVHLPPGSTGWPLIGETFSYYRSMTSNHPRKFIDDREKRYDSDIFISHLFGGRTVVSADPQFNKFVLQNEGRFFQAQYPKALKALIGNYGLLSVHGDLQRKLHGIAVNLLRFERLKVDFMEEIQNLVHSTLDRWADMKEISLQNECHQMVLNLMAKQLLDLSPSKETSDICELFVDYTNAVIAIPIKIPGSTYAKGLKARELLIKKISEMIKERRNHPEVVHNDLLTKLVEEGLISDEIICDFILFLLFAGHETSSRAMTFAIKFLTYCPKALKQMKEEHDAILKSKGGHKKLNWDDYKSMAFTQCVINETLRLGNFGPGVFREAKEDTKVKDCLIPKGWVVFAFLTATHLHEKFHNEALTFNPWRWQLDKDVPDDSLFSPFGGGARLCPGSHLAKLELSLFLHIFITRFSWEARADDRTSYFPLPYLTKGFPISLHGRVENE
T2 sequence (E5FA70 entry or part of it, stated change not applied): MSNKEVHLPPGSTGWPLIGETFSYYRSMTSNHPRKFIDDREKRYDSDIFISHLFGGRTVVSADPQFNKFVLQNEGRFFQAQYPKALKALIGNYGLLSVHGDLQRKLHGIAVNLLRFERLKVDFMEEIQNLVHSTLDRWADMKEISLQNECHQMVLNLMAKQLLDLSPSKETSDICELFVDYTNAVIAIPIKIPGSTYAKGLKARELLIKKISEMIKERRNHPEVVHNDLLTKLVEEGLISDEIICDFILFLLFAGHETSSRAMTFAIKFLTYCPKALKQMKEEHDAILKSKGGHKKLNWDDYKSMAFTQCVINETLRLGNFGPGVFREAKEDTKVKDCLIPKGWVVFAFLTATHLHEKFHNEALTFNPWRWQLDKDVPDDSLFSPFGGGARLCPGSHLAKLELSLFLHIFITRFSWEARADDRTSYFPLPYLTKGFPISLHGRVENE
T4 sequence (E5FA70 entry or part of it DEL3-9/V13A, form open): as the sequence (E5FA70 entry or part of it DEL3-9/V13A, form open) above

Compound: C=C[C@@]1(C)CC[C@H]2C(=CC[C@@H]3[C@]2(C)CCC[C@@]3(C)C(=O)O)C1 [isopimaric acid]
- co-expression with diTPS-ISO in N. benthamiana leaves, GC-MS and LC-MS (CYP720B4): isopimaradiene was depleted and isopimaric acid accumulated (Fig. 2c, d), indicating efficient conversion

Compound: C=C[C@@]1(C)CC[C@H]2C(=CC[C@H]3C(C)(C)CCC[C@]23C)C1 [isopimaradiene]
- co-expression with diTPS-ISO, DXS and GGPPs in N. benthamiana leaves, GC-FID and (ΔTm-CYP720B4): CYP720B4 remains active even after complete removal of the transmembrane domain
- transient expression in N. benthamiana leaves, product by GC-MS (diTPS-ISO): active as confirmed by the formation of isopimaradiene in the infiltrated leaves
- co-expression with diTPS-ISO, DXS and GGPPs in N. benthamiana leaves, GC-FID and (Tp-Barnes-CYP720B4): In contrast, the Tp-Barnes-CYP720B4 was active
- co-expression with diTPS-ISO, DXS and GGPPs in N. benthamiana leaves, GC-FID and (Barnes-CYP720B4): Barnes-CYP720B4 activity does not seem to deteriorate after the N-terminal modification
- co-expression with diTPS-ISO in N. benthamiana leaves, GC-MS and LC-MS (CYP720B4): Upon co-expression with CYP720B4, isopimaradiene was depleted and isopimaric acid accumulated

Compound: CC(C)=CCC/C(C)=C/CC/C(C)=C/CC/C(C)=C/COP(=O)(O)OP(=O)(O)O [GGPP]
- transient expression in N. benthamiana leaves, product by GC-MS (diTPS-ISO): The expressed diTPS-ISO is active as confirmed by the formation of isopimaradiene
